# Results from US20140005163A1 (NOVARTIS AG, priority 2010, published 2014).
# Legend:
# Solubility at pH 6.8 = format: physicochemical; details: pH 6.8, aqueous buffer, thermodynamic from solid; read-out: solubility
# Method in brief: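 Following the procedure of Zhou et al. (2007), compound solubility was determined at pH 6.8.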
# PI3K gamma = molecular target: T1, PI3K gamma (Homo sapiens, UniProt P48736); test: PI3K gamma kinase assay (Kinase-Glo luminescence); format: biochemical
# T1 construct: His tag (C); made in house; host or cells: baculovirus (pVL1393); Tn5 or TiniPro insect cells; construct from Roger Williams lab, MRC LMB
# Method in brief: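 PI3Kγ (150 nM) reaction run 120 min at room temperature with phosphatidylinositol substrate (10 μg/mL) and ATP (1 μM) in Tris pH 7.5 buffer containing MgCl2, NaCl, CHAPS and DTT. Remaining ATP detected by Kinase-Glo luminescence; 8 concentrations per compound, IC50 from 4-parameter curve fitting.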
# [1] = test system: PKB Ser473 phosphorylation in Rat1-myr-HA-p110 delta cells; test: Reverse protein array assay, PKB Ser473 phosphorylation in Rat1-myr-p110 delta cells; format: cell-based; details: read-out: p-PKB IC50
# Method in brief: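 Compound exposure lasted 30 min in Rat1 cells bearing membrane-targeted HA-p110 isoforms, using 8 serial concentrations. Arrayed lysates, each spotted at four dilutions, gave relative fluorescence signals for phospho-Ser473 PKB.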
# [2] = Cellular CaCo2 permeability assay from apical to basal (A-B); format: in vitro ADME; details: human, Caco-2, read-out: Pe A-B (permeability)
# Description: The permeability in 10^−6 cm/s of compounds of formula (I) have been confirmed for selected example using a cellular CaCo2 permeability assay from apical to basal (A-B): […]
# T1 sequence (P48736 144-1102 limits assumed): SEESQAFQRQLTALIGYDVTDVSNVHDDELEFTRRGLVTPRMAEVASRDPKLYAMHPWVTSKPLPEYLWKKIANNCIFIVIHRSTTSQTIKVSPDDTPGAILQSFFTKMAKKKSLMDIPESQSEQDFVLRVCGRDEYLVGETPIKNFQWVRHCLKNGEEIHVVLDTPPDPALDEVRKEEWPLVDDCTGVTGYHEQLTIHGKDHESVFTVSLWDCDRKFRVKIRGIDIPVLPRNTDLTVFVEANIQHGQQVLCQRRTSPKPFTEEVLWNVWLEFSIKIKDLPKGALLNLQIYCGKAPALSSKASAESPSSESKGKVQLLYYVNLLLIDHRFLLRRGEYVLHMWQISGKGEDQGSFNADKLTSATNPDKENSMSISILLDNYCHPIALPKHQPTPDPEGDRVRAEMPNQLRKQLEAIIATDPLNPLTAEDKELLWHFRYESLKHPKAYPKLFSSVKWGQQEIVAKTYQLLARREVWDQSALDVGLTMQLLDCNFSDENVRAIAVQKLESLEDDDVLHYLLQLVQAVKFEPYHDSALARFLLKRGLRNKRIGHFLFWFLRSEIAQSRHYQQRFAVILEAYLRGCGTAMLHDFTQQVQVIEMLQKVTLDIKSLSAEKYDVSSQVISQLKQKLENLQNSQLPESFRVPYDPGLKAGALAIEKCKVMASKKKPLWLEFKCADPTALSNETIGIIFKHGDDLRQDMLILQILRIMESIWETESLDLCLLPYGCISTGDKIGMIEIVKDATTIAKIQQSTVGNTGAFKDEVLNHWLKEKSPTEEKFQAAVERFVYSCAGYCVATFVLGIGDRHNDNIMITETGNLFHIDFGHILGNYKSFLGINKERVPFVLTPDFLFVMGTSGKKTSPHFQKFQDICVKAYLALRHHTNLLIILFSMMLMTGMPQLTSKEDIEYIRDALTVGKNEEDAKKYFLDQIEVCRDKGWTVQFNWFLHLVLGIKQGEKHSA
solubility (Solubility at pH 6.8) [µg/mL],IC50 (PI3K gamma) [µM],IC50 [1] [µM],Papp A→B [2] [×10⁻⁶ cm/s],Structure (SMILES)
> 486,0.816,0.356,,"CCOc1ncc(-c2ccc3ncc4c(c3c2)n(-c2cn(C)nc2C)c(=O)n4C)cc1N(C)C(C)=O [Example 63, N-{5-[1-(1,3-Dimethyl-1H-pyrazol-4-yl)-3-methyl-2-oxo-2,3-dihydro-1H-imidazo[4,5-c]quinolin-8-yl]-2-ethoxy-pyridin-3-yl}-N-methyl-acetamide]"
25,0.111,0.17,,"Cc1cncc(-c2ccc3ncc4c(c3c2)n(-c2cn(C)nc2C)c(=O)n4C)c1 [Example 24, 1-(1,3-Dimethyl-1H-pyrazol-4-yl)-3-methyl-8-(5-methyl-pyridin-3-yl)-1,3-dihydro-imidazo[4,5-c]quinolin-2-one]"
13,0.39,0.036,38.4,"COc1ccc(-c2ccc3ncc4c(c3c2)n(-c2cn(C)nc2C)c(=O)n4C)cn1 [Example 2.5, 1-(1,3-Dimethyl-1H-pyrazol-4-yl)-8-(6-methoxy-pyridin-3-yl)-3-methyl-1,3-dihydro-imidazo[4,5-c]quinolin-2-one]"
65,0.157,0.03,31.6,"CCn1cc(-n2c(=O)n(C)c3cnc4ccc(-c5ccc(OC)c(OC)c5)cc4c32)c(C)n1 [Example 1.6, 8-(3,4-Dimethoxy-phenyl)-1-(1-ethyl-3-methyl-1H-pyrazol-4-yl)-3-methyl-1,3-dihydro-imidazo[4,5-c]quinolin-2-one]"
3,0.303,0.186,27.8,"CCOc1ccc(-c2ccc3ncc4c(c3c2)n(-c2cn(C(C)C)nc2C)c(=O)n4C)cn1 [Example 3.7, 8-(6-Ethoxy-pyridin-3-yl)-1-(1-isopropyl-3-methyl-1H-pyrazol-4-yl)-3-methyl-1,3-dihydro-imidazo[4,5-c]quinolin-2-one]"
35,,0.09,7.8,"Cc1nn(C)cc1-n1c(=O)n(C)c2cnc3ccc(-c4cncc(N5CCOCC5)c4)cc3c21 [Example 175.1, 1-(1,3-Dimethyl-1H-pyrazol-4-yl)-3-methyl-8-(5-morpholin-4-yl-pyridin-3-yl)-1,3-dihydro-imidazo[4,5-c]quinolin-2-one]"
65,,0.05,14.8,"CCOc1ccc(-c2ccc3ncc4c(c3c2)n(-c2cn(CC(=O)N(C)C)nc2C)c(=O)n4C)cn1 [Example 3.9, 2-{4-[8-(6-Ethoxy-pyridin-3-yl)-3-methyl-2-oxo-2,3-dihydro-imidazo[4,5-c]quinolin-1-yl]-3-methyl-pyrazol-1-yl}-N,N-dimethyl-acetamide]"
> 443,0.31,0.162,,"COCc1ccc(-c2ccc3ncc4c(c3c2)n(-c2cn(C(C)C)nc2C)c(=O)n4C)cn1 [Example 105, 1-(1-Isopropyl-3-methyl-1H-pyrazol-4-yl)-8-(6-methoxymethyl-pyridin-3-yl)-3-methyl-1,3-dihydro-imidazo[4,5-c]quinolin-2-one]"
> 486,0.199,0.468,,"CCOc1cncc(-c2ccc3ncc4c(c3c2)n(-c2cn(CC(=O)N(C)C)nc2C)c(=O)n4C)c1 [Example 56.2, 2-{4-[8-(5-Ethoxy-pyridin-3-yl)-3-methyl-2-oxo-2,3-dihydro-imidazo[4,5-c]quinolin-1-yl]-3-methyl-pyrazol-1-yl}-N,N-dimethyl-acetamide]"
222,,< 0.005,29.9,"CCNc1cc(-c2ccc3ncc4c(c3c2)n(-c2cn(C)nc2Cl)c(=O)n4C)cnc1C [Example 87.2, 1-(3-Chloro-1-methyl-1H-pyrazol-4-yl)-8-(5-ethylamino-6-methyl-pyridin-3-yl)-3-methyl-1,3-dihydro-imidazo[4,5-c]quinolin-2-one]"
> 458,,0.013,10.9,"CCNc1cc(-c2ccc3ncc4c(c3c2)n(-c2cn(CC)nc2C)c(=O)n4C)cnc1CO [Example 155.2, 8-(5-Ethylamino-6-hydroxymethyl-pyridin-3-yl)-1-(1-ethyl-3-methyl-1H-pyrazol-4-yl)-3-methyl-1,3-dihydro-imidazo[4,5-c]quinolin-2-one]"
28,,0.025,16,"Cc1nn(C)cc1-n1c(=O)n(C)c2cnc3ccc(-c4cncc(N5CCC5)c4)cc3c21 [Example 179, 8-(5-Azetidin-1-yl-pyridin-3-yl)-1-(1,3-dimethyl-1H-pyrazol-4-yl)-3-methyl-1,3-dihydro-imidazo[4,5-c]quinolin-2-one]"
6,0.481,0.205,,"Cc1cc(-n2c(=O)n(C)c3cnc4ccc(-c5ccc(N(C)C)nc5)cc4c32)n(C)n1 [Example 4.6, 8-(6-Dimethylamino-pyridin-3-yl)-1-(2,5-dimethyl-2H-pyrazol-3-yl)-3-methyl-1,3-dihydro-imidazo[4,5-c]quinolin-2-one]"
12,0.287,0.043,,"COC(=O)c1ccc(-c2ccc3ncc4c(c3c2)n(-c2cn(C)nc2C)c(=O)n4C)cn1 [Example 100, 5-[1-(1,3-Dimethyl-1H-pyrazol-4-yl)-3-methyl-2-oxo-2,3-dihydro-1H-imidazo[4,5-c]quinolin-8-yl]-pyridine-2-carboxylic acid methyl ester]"
3,0.217,0.062,21.5,"CCn1cc(-n2c(=O)n(C)c3cnc4ccc(-c5ccc(OC)nc5)cc4c32)c(C)n1 [Example 2.7, 1-(1-Ethyl-3-methyl-1H-pyrazol-4-yl)-8-(6-methoxy-pyridin-3-yl)-3-methyl-1,3-dihydro-imidazo[4,5-c]quinolin-2-one]"
3,0.309,0.018,,"Cc1nn(C)cc1-n1c(=O)n(C)c2cnc3ccc(-c4ccc(N5CCC5)nc4)cc3c21 [Example 5.1, 8-(6-Azetidin-1-yl-pyridin-3-yl)-1-(1,3-dimethyl-1H-pyrazol-4-yl)-3-methyl-1,3-dihydro-imidazo[4,5-c]quinolin-2-one]"
5,0.132,0.05,,"COc1ccc(-c2ccc3ncc4c(c3c2)n(-c2cn(C(C)C)nc2C)c(=O)n4C)cc1OC [Example 1.5, 8-(3,4-Dimethoxy-phenyl)-1-(1-isopropyl-3-methyl-1H-pyrazol-4-yl)-3-methyl-1,3-dihydro-imidazo[4,5-c]quinolin-2-one]"
5,0.213,0.029,,"Cc1nn(C)cc1-n1c(=O)n(C)c2cnc3ccc(-c4ccc(-n5cccn5)cc4)cc3c21 [Example 51.1, 1-(1,3-Dimethyl-1H-pyrazol-4-yl)-3-methyl-8-(4-pyrazol-1-yl-phenyl)-1,3-dihydro-imidazo[4,5-c]quinolin-2-one]"
53,0.212,0.074,,"Cc1nn(C)cc1-n1c(=O)n(C)c2cnc3ccc(-c4ccc(C(N)=O)nc4)cc3c21 [Example 14, 5-[1-(1,3-Dimethyl-1H-pyrazol-4-yl)-3-methyl-2-oxo-2,3-dihydro-1H-imidazo[4,5-c]quinolin-8-yl]-pyridine-2-carboxylic acid amide]"
386,0.121,0.018,,"COc1ncc(-c2ccc3ncc4c(c3c2)n(-c2cn(C)nc2C)c(=O)n4C)cc1N [Example 127, 8-(5-Amino-6-methoxy-pyridin-3-yl)-1-(1,3-dimethyl-1H-pyrazol-4-yl)-3-methyl-1,3-dihydro-imidazo[4,5-c]quinolin-2-one]"
8,0.237,0.134,,"Cc1nn(C)cc1-n1c(=O)n(C)c2cnc3ccc(-c4cccc(S(=O)(=O)N5CCCC5)c4)cc3c21 [Example 44, 1-(1,3-Dimethyl-1H-pyrazol-4-yl)-3-methyl-8-[3-(pyrrolidine-1-sulfonyl)-phenyl]-1,3-dihydro-imidazo[4,5-c]quinolin-2-one]"
3,0.236,0.034,,"Cc1nn(C)cc1-n1c(=O)n(C)c2cnc3ccc(-c4cnc5c(ccn5C)c4)cc3c21 [Example 116, 1-(1,3-Dimethyl-1H-pyrazol-4-yl)-3-methyl-8-(1-methyl-1H-pyrrolo[2,3-b]pyridin-5-yl)-1,3-dihydro-imidazo[4,5-c]quinolin-2-one]"
3,0.286,0.12,,"COc1ccc(-c2ccc3ncc4[nH]c(=O)n(-c5cn(C)nc5C)c4c3c2)cn1 [Example 109, 1-(1,3-Dimethyl-1H-pyrazol-4-yl)-8-(6-methoxy-pyridin-3-yl)-1,3-dihydro-imidazo[4,5-c]quinolin-2-one]"
32,0.535,0.401,,"Cc1nn(C)cc1-n1c(=O)n(C)c2cnc3ccc(-c4ccc(OCCCO)nc4)cc3c21 [Example 108, 1-(1,3-Dimethyl-1H-pyrazol-4-yl)-8-[6-(3-hydroxy-propoxy)-pyridin-3-yl]-3-methyl-1,3-dihydro-imidazo[4,5-c]quinolin-2-one]"
